Measured values reported in ChEMBL document CHEMBL5584357, “Corannulene Amino Acid-Derived Water-Soluble Amphiphilic Buckybowls as Broad-Spectrum Membrane Targeting Antibacterial Agents” (J Med Chem, 2024).
Converted amounts (≈) assume the structure as drawn. The source made the active and inactive calls. The calls are words filed in the database; no cut-off is given here. Peptide text beside a SMILES is read from it.

How the values were obtained:
[1] = test system: Escherichia coli; assay: Antibacterial activity against Escherichia coli ATCC 25922 incubated for 16 to 18 hrs by broth microdilution method; type: functional; conditions: time 16-18 hrs
[2] = test system: Acinetobacter baumannii; assay: Antibacterial activity against Acinetobacter baumanni ATCC 19606 incubated for 16 to 18 hrs by broth microdilution method; type: functional; conditions: time 16-18 hrs
[3] = test system: Pseudomonas aeruginosa; assay: Antibacterial activity against Pseudomonas aeruginosa ATCC BAA-427 incubated for 16 to 18 hrs by broth microdilution method; type: functional; conditions: time 16-18 hrs
[4] = test system: Staphylococcus aureus; assay: Antibacterial activity against Staphylococcus aureus ATCC 25923 incubated for 16 to 18 hrs by broth microdilution method; type: functional; conditions: time 16-18 hrs
[5] = test system: Staphylococcus aureus; assay: Antibacterial activity against methicillin-resistant Staphylococcus aureus ATCC 33591 incubated for 16 to 18 hrs by broth microdilution method; type: functional; conditions: time 16-18 hrs
[6] = test system: Staphylococcus aureus; assay: Antibacterial activity against methicillin-resistant Staphylococcus aureus ATCC BAA-44 incubated for 16 to 18 hrs by broth microdilution method; type: functional; conditions: time 16-18 hrs
[7] = Cytotoxicity against mouse 3T3-L1 cells assessed as cell viability upto 60 uM incubated for 4 hrs by MTT assay relative to control; type: toxicity, cell-based; conditions: read-out: Activity
[8] = Hemolytic activity against human RBCs upto 100 uM incubated for 45 mins by absorbance based assay; type: toxicity, cell-based, Erythrocyte; conditions: red blood cells (erythrocytes), read-out: Activity
[9] = test system: Escherichia coli; assay: Bactericidal activity against Escherichia coli ATCC 25922 incubated for 16 hrs; type: functional
[10] = test system: Staphylococcus aureus; assay: Bactericidal activity against Staphylococcus aureus ATCC 25923 incubated for 16 hrs; type: functional
[11] = test system: Staphylococcus aureus; assay: Induction of cell membrane damage in Staphylococcus aureus ATCC 25923 at 5 times MIC incubated for 60 mins by PI staining based FACS analysis; type: functional, organism-based
[12] = test system: Escherichia coli; assay: Induction of cell membrane damage in Escherichia coli ATCC 25922 at 5 times MIC incubated for 60 mins by PI staining based FACS analysis; type: functional, organism-based
[13] = test system: Staphylococcus aureus; assay: Induction of cell membrane damage in Staphylococcus aureus ATCC 25923 at 1 to 5 times MIC by SYTOX green fluorescence based analysis; type: functional, organism-based
[14] = test system: Escherichia coli; assay: Induction of cell membrane damage in Escherichia coli ATCC 25922 at 1 to 5 times MIC by SYTOX green fluorescence based analysis; type: functional, organism-based
[15] = test system: Erythrocyte; assay: Hemolytic activity against human RBCs upto 70 uM incubated for 45 mins by absorbance based assay; type: toxicity, cell-based; conditions: 0.75 h
[16] = test system: Staphylococcus aureus; assay: Antimicrobial activity against vancomycin-resistant Staphylococcus aureus; type: functional, organism-based
[17] = test system: Staphylococcus aureus; assay: Antimicrobial activity against methicillin-resistant Staphylococcus aureus; type: functional, organism-based
[18] = test system: Staphylococcus aureus; assay: Bactericidal activity against Staphylococcus aureus VRS1 at 1 to 4 times MIC by time kill assay; type: functional, organism-based; conditions: time <= 24.0 hrs
[19] = test system: Staphylococcus aureus; assay: Bactericidal activity against Staphylococcus aureus VRS1 at 4 times MIC incubated for 6 hrs by time kill assay relative to control; type: functional
[20] = test system: Staphylococcus aureus; assay: Induction of cell membrane damage in Staphylococcus aureus ATCC 25923 assessed as membrane distortion at 5 times MIC incubated for 60 mins by SEM analysis; type: functional, organism-based
[21] = test system: Staphylococcus aureus; assay: Induction of cell membrane damage in Staphylococcus aureus ATCC 25923 assessed as membrane blebbing at 5 times MIC incubated for 60 mins by SEM analysis; type: functional, organism-based
[22] = test system: Staphylococcus aureus; assay: Induction of cell membrane damage in Staphylococcus aureus ATCC 25923 assessed as bacterial content leakage at 5 times MIC incubated for 60 mins by SEM analysis; type: functional, organism-based
[23] = test system: Escherichia coli; assay: Induction of cell membrane damage in Escherichia coli ATCC 25922 assessed as membrane blebbing at 5 times MIC incubated for 60 mins by SEM analysis; type: functional, organism-based
[24] = test system: Escherichia coli; assay: Induction of cell membrane damage in Escherichia coli ATCC 25922 assessed as wrinkling on bacterial surface at 5 times MIC incubated for 60 mins by SEM analysis; type: functional, organism-based
[25] = Acute toxicity in BALB/c mouse assessed as signs of toxicity at 50 mg/kg, ip measured for 7 days; type: organism-based; conditions: in vivo, 168 h, time 7 day
[26] = Acute toxicity in BALB/c mouse assessed as animal survival at 50 mg/kg, ip measured for 7 days; type: organism-based; conditions: in vivo, 168 h, time 7 day
[27] = Toxicity in BALB/c mouse assessed as animal death at 15 to 30 mg/kg, ip measured for 18 hrs; type: organism-based; conditions: in vivo, dose 15-30 mg/kg
[28] = test system: Staphylococcus aureus; assay: Antibacterial activity against Staphylococcus aureus ATCC 25923 infected in BALB/c mouse assessed as bacterial load in liver at 30 mg/kg, ip measured after 18 hrs (Rvb ~ 1.75 x10^7); type: functional
[29] = test system: Staphylococcus aureus; assay: Antibacterial activity against Staphylococcus aureus ATCC 25923 infected in BALB/c mouse assessed as bacterial load in spleen at 30 mg/kg, ip measured after 18 hrs (Rvb ~ 1 x10^7); type: functional
[30] = test system: Staphylococcus aureus; assay: Antibacterial activity against Staphylococcus aureus ATCC 25923 infected in BALB/c mouse assessed as bacterial load in lung at 30 mg/kg, ip measured after 18 hrs (Rvb ~ 5 x10^6); type: functional
[31] = test system: Staphylococcus aureus; assay: Antibacterial activity against Staphylococcus aureus ATCC 25923 infected in BALB/c mouse assessed as bacterial load in blood at 30 mg/kg, ip measured after 18 hrs (Rvb ~ 6 x10^6); type: functional
[32] = test system: Staphylococcus aureus; assay: Induction of cell membrane damage in Staphylococcus aureus ATCC 25923 at 5 times MIC incubated for 60 mins by SEM analysis; type: functional, organism-based
[33] = test system: Staphylococcus aureus; assay: Bactericidal activity against Staphylococcus aureus VRS1 at 4 times MIC incubated for 24 hrs by time kill assay relative to control; type: functional

Compound	MIC [1] [µM]	MIC [2] [µM]	MIC [3] [µM]	MIC [4] [µM]	MIC [5] [µM]	MIC [6] [µM]	viability at 4 h, up to 60 µM [7] [%]	MBC [9] [µM]	MBC [10] [µM]	Activity [11]	Activity [12]	Activity [13]	Activity [14]	Activity [20]	Activity [21]	Activity [22]	Activity [23]	Activity [24]	other results
COC(=O)[C@H](CCCc1cc2ccc3ccc4ccc5ccc1c1c5c4c3c21)NC(=O)CNC(=O)[C@@H](N)CCCCN	50 (≈ 28.2 µg/mL)	50 (≈ 28.2 µg/mL)	50 (≈ 28.2 µg/mL)	12.5 (≈ 7.06 µg/mL)	12.5 (≈ 7.06 µg/mL)	12.5 (≈ 7.06 µg/mL)	62	50 (≈ 28.2 µg/mL)	12.5 (≈ 7.06 µg/mL)	Active	Active	Active	inactive	–	–	–	–	–	hemolysis at 0.75 h, up to 100 µM [8]: ~5%
COC(=O)[C@H](Cc1cc2ccc3ccc4ccc5ccc1c1c5c4c3c21)NC(=O)CNC(=O)[C@@H](N)CCCCN	50 (≈ 26.8 µg/mL)	100 (≈ 53.7 µg/mL)	50 (≈ 26.8 µg/mL)	12.5 (≈ 6.71 µg/mL)	12.5 (≈ 6.71 µg/mL)	12.5 (≈ 6.71 µg/mL)	47	50 (≈ 26.8 µg/mL)	50 (≈ 26.8 µg/mL)	Active	Active	Active	inactive	–	–	–	–	–	hemolysis at 0.75 h, up to 100 µM [8]: ~3%
COC(=O)[C@H](Cc1cc2ccc3ccc4ccc5ccc1c1c5c4c3c21)NC(=O)[C@@H](N)CCCCN.Cl.Cl	50	200	200	25	25	12.5	71	50	50	Active	Active	Active	inactive	Active	Active	Active	Active	Active	Activity [15]: Non-Toxic; Activity [16]: Active; Activity [17]: Active; Activity [18]: Dose-Dependent Effect; Activity [19]: 100%; Activity [25]: Non-Toxic; Activity [26]: Non-Toxic; Activity [27]: Non-Toxic; Activity [28]: ~1.2 10^6CFU/ml; Activity [29]: ~6.5 10^5CFU/ml; Activity [30]: ~4.5 10^4CFU/ml; Activity [31]: ~7 10^4CFU/ml
CN(C)[C@@H]1C(O)=C(C(N)=O)C(=O)[C@@]2(O)C(O)=C3C(=O)c4c(O)cccc4[C@@](C)(O)[C@H]3C[C@@H]12 [TETRACYCLINE]	0.78 (≈ 0.347 µg/mL)	0.39 (≈ 0.173 µg/mL)	1.56 (≈ 0.693 µg/mL)	0.39 (≈ 0.173 µg/mL)	0.78 (≈ 0.347 µg/mL)	0.78 (≈ 0.347 µg/mL)	–	0.78 (≈ 0.347 µg/mL)	0.78 (≈ 0.347 µg/mL)	–	–	–	–	–	–	–	–	–	–
O=C(O)c1cn(C2CC2)c2cc(N3CCNCC3)c(F)cc2c1=O [CIPROFLOXACIN]	0.39 (≈ 0.129 µg/mL)	0.39 (≈ 0.129 µg/mL)	1.56 (≈ 0.517 µg/mL)	0.39 (≈ 0.129 µg/mL)	1.56 (≈ 0.517 µg/mL)	0.39 (≈ 0.129 µg/mL)	–	0.39 (≈ 0.129 µg/mL)	0.39 (≈ 0.129 µg/mL)	–	–	–	–	–	–	–	–	–	–
CC[C@H](C)[C@H](NC(=O)[C@H](CCCNC(=N)N)NC(=O)CNC(=O)[C@H](CC(C)C)NC(=O)[C@H](Cc1ccccc1)NC(=O)[C@H](CCCCN)NC(=O)[C@H](CO)NC(=O)[C@H](Cc1ccccc1)NC(=O)[C@H](Cc1c[nH]c2ccccc12)NC(=O)[C@H](CCC(N)=O)NC(=O)[C@@H](NC(=O)[C@@H](N)Cc1ccccc1)C(C)C)C(=O)N[C@@H](CC(C)C)C(N)=O (H-FVQWFSKFLGRIL-NH2)	–	–	–	–	–	–	–	–	–	–	–	–	–	–	–	–	–	–	Activity [32]: Active
COC(=O)[C@H](CCCNC(=N)NS(=O)(=O)c1ccc(C)cc1)NC(=O)[C@@H](N)Cc1cc2ccc3ccc4ccc5ccc1c1c5c4c3c21	> 400	> 400	> 400	> 400	> 400	> 400	–	–	–	Active	Active	–	–	–	–	–	–	–	–
CCCCCCCCCC(=O)N[C@@H](Cc1c[nH]c2ccccc12)C(=O)N[C@H](CC(N)=O)C(=O)N[C@@H](CC(=O)O)C(=O)N[C@@H]1C(=O)NCC(=O)N[C@@H](CCCN)C(=O)N[C@@H](CC(=O)O)C(=O)N[C@H](C)C(=O)N[C@@H](CC(=O)O)C(=O)NCC(=O)N[C@H](CO)C(=O)N[C@@H]([C@H](C)CC(=O)O)C(=O)N[C@@H](CC(=O)c2ccccc2N)C(=O)O[C@@H]1C	–	–	–	–	–	–	–	–	–	–	–	–	–	–	–	–	–	–	Activity [33]: 100%
COC(=O)[C@H](Cc1cc2ccc3ccc4ccc5ccc1c1c5c4c3c21)NC(=O)[C@H](N)CCCCN	100 (≈ 48 µg/mL)	50 (≈ 24 µg/mL)	50 (≈ 24 µg/mL)	25 (≈ 12 µg/mL)	25 (≈ 12 µg/mL)	25 (≈ 12 µg/mL)	3	200 (≈ 95.9 µg/mL)	50 (≈ 24 µg/mL)	Active	Active	Active	inactive	Active	Active	Active	Active	Active	–
COC(=O)[C@H](CCCc1cc2ccc3ccc4ccc5ccc1c1c5c4c3c21)NC(=O)[C@@H](N)CCCCN	25 (≈ 12.7 µg/mL)	25 (≈ 12.7 µg/mL)	25 (≈ 12.7 µg/mL)	12.5 (≈ 6.35 µg/mL)	12.5 (≈ 6.35 µg/mL)	12.5 (≈ 6.35 µg/mL)	41	25 (≈ 12.7 µg/mL)	12.5 (≈ 6.35 µg/mL)	Active	Active	Active	inactive	Active	Active	Active	Active	Active	–
